# Assay results as given in PMC7429318 (Journal of controlled release : official journal of the …, 2020).
# Tested on: MDCKII cells
# Experiment: Transwell permeability assay across MDCKII monolayer
# Format: in vitro ADME, canine
# Details: transwell (2D), LY 100 μM
substance,measurement,value
Lucifer yellow CH-lithium salt [LY],permeability in transwell assay (2D),about 3 × 10^−7 cm s^−1
